The nature of series [1]: in vivo. The settings on record: dog.
A short description of series [2]: in vitro. The settings on record: rat, plasma.
Description: Protein binding in rat plasma assessed as unbound fraction
Series [3] can be described thus: in vivo. Particulars: dog, po.
Description: Oral bioavailability in dog
Series [4] can be described thus: in vivo. The settings on record: rat.
Series [5] is described as follows: in vivo. The settings on record: mouse.
Description: Volume of distribution at steady state in mouse
Series [6] in a line: in vitro. The settings on record: human, Caco-2.
For series [7] the following is noted: rat, microsomes.
Description: Intrinsic clearance in rat microsomes
The conditions of series [8]: human, microsomes.
Description: Intrinsic clearance in human microsomes
The next series can be described thus: physchem. Particulars: octanol/water.
Series [9] in a line: in vivo. The settings on record: cynomolgus monkey.
Description: Volume of distribution at steady state in cynomolgus monkey
Series [10] is described as follows: in vivo. Particulars: mouse, po.
Description: Oral bioavailability in mouse
A short description of series [11]: in vivo. Particulars: rat. The source holds these as a separate data set.
Description: Volume of distribution at steady state in rat
The nature of series [12]: in vitro. Particulars: human, plasma.
Description: Protein binding in human plasma assessed as unbound fraction
A short description of series [13]: in vivo. The settings on record: rat, po.
Description: Oral bioavailability in rat
Series [14] addresses Ribosomal protein S6 kinase beta-1 (Homo sapiens, UniProt P23443, T412E). The format is cell-based, Sf21.
Series [15] is described as follows: in vivo. The settings on record: dog. The source holds these as a separate data set.
Series [16] can be described thus: in vitro. The settings on record: human, Caco-2. The source holds these as a separate data set.
A short description of series [17]: in vivo. Particulars: cynomolgus monkey. The source holds these as a separate data set.
Description: Clearance in cynomolgus monkey
The conditions of series [18]: mouse, microsomes.
Description: Intrinsic clearance in mouse microsomes
Series [19] can be described thus: in vivo. The settings on record: mouse. This is another data set of the same source.
The nature of series [20]: in vivo. Particulars: dog. This is another data set of the same source.
Description: Volume of distribution at steady state in dog
A short description of series [21]: in vitro. Particulars: mouse, plasma.
Description: Protein binding in mouse plasma assessed as unbound fraction
The nature of series [22]: in vivo. The settings on record: cynomolgus monkey, po.
Description: Oral bioavailability in cynomolgus monkey
Series [23] is described as follows: in vivo. The settings on record: rat. This is another data set of the same source.
Series [24] can be described thus: in vivo. Particulars: mouse. The source holds these as a separate data set.
Another series can be described thus: cells. Type of series: cell-based. Particulars: Homo sapiens, MDA-MB-468.
Series [25] can be described thus: in vivo. Particulars: cynomolgus monkey. The source holds these as a separate data set.
Description: Half life in cynomolgus monkey
The target of series [26] is RAC-alpha serine/threonine-protein kinase (Homo sapiens, UniProt P31749).
Series [27] has as its target Aurora kinase B/Inner centromere protein (Homo sapiens, UniProt Q96GD4). The series is described as follows: biochemical. The format is cell-based, Sf21.
Another series has as its target Cytochrome P450 2C9 (Homo sapiens, UniProt P11712).
In the next series the target is hERG (KCNH2) (Homo sapiens, UniProt Q12809). The series is described as follows: in vitro.
For series [28] the following is noted: buffer, pH 7.4.
Description: Thermodynamic solubility of compound at pH 7.4
The test system of a further series is MDA-MB-468. The series is described as follows: cells. Particulars: Homo sapiens, MDA-MB-468, 96 h. The format is functional, cell-based.

Some results are limits rather than exact numbers.

Chain of RAC-alpha serine/threonine-protein kinase (P31749 whole entry): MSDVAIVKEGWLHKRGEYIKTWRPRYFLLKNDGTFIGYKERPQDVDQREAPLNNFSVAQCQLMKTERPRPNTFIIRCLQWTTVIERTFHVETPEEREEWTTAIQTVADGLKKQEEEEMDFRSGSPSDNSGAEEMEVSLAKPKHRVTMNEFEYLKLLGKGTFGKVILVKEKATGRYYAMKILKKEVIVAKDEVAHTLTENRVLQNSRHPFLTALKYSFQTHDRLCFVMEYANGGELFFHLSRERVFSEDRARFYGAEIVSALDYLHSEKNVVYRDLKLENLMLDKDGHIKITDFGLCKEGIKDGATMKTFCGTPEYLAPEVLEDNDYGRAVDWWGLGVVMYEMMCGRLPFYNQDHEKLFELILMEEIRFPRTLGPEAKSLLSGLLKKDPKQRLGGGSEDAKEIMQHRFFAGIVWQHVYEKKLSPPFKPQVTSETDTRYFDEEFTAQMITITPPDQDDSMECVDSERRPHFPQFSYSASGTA
Chain of Aurora kinase B/Inner centromere protein (Q96GD4 whole entry): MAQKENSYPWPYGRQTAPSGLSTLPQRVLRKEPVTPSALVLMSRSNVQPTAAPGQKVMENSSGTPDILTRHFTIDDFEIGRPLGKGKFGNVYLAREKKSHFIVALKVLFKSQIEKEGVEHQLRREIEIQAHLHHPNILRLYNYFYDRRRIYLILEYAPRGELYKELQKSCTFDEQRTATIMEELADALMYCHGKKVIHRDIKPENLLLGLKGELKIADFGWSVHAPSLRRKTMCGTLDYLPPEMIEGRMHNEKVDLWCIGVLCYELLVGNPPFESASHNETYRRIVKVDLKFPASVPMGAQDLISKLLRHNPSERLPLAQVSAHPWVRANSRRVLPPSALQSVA
Chain of Aurora kinase B/Inner centromere protein (Q9NQS7 whole entry, further chain): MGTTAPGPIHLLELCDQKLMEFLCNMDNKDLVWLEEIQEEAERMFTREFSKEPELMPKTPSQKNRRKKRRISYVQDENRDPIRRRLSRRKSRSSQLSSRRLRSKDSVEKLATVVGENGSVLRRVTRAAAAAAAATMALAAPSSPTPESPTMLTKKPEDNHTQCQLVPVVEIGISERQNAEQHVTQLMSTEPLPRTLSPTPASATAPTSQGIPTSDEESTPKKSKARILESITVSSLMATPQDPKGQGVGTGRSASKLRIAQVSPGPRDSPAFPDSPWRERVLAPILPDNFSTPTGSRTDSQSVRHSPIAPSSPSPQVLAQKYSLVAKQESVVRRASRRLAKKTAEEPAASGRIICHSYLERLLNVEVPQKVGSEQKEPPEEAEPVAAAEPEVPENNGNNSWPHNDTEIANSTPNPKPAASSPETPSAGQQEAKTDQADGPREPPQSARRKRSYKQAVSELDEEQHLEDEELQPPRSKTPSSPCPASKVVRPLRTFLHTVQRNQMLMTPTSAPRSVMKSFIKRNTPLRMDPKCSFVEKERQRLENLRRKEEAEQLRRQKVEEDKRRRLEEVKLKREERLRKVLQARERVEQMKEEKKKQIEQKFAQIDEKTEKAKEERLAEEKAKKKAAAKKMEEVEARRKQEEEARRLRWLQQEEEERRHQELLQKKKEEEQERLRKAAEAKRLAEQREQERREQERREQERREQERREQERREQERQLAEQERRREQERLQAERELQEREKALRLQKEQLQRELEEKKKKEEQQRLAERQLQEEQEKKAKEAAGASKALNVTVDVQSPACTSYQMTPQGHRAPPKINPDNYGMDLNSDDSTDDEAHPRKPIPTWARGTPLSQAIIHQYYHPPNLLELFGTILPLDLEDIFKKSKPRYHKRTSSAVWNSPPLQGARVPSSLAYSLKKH
Chain of Ribosomal protein S6 kinase beta-1 (P23443 whole entry T412E): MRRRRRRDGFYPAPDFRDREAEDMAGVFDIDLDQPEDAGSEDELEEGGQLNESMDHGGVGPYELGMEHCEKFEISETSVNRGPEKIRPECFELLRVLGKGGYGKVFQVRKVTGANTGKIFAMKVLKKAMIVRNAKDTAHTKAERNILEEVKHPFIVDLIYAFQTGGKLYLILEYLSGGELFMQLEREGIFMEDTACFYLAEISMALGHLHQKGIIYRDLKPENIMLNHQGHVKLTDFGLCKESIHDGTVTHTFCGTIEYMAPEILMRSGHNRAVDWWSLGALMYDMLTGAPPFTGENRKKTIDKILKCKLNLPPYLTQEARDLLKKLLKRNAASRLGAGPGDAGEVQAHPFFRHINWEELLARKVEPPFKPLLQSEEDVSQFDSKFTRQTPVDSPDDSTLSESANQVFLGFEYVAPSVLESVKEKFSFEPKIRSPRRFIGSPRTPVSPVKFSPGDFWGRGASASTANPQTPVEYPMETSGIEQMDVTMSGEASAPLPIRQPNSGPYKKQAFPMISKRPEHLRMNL
Chain of Cytochrome P450 2C9 (P11712 whole entry): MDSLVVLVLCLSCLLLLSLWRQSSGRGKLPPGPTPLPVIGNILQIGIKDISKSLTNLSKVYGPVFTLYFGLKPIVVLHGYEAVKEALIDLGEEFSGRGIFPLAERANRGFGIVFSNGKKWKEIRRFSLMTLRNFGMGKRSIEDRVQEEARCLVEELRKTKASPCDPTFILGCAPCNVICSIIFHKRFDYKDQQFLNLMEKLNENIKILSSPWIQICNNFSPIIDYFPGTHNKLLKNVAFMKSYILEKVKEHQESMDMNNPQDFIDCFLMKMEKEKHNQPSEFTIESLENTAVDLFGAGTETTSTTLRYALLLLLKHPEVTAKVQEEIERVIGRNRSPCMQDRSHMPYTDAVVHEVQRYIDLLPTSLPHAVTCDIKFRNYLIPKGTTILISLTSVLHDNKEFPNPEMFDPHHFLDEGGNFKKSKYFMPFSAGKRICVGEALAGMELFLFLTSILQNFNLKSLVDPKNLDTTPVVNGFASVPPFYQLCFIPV
Chain of hERG (KCNH2) (Q12809 whole entry): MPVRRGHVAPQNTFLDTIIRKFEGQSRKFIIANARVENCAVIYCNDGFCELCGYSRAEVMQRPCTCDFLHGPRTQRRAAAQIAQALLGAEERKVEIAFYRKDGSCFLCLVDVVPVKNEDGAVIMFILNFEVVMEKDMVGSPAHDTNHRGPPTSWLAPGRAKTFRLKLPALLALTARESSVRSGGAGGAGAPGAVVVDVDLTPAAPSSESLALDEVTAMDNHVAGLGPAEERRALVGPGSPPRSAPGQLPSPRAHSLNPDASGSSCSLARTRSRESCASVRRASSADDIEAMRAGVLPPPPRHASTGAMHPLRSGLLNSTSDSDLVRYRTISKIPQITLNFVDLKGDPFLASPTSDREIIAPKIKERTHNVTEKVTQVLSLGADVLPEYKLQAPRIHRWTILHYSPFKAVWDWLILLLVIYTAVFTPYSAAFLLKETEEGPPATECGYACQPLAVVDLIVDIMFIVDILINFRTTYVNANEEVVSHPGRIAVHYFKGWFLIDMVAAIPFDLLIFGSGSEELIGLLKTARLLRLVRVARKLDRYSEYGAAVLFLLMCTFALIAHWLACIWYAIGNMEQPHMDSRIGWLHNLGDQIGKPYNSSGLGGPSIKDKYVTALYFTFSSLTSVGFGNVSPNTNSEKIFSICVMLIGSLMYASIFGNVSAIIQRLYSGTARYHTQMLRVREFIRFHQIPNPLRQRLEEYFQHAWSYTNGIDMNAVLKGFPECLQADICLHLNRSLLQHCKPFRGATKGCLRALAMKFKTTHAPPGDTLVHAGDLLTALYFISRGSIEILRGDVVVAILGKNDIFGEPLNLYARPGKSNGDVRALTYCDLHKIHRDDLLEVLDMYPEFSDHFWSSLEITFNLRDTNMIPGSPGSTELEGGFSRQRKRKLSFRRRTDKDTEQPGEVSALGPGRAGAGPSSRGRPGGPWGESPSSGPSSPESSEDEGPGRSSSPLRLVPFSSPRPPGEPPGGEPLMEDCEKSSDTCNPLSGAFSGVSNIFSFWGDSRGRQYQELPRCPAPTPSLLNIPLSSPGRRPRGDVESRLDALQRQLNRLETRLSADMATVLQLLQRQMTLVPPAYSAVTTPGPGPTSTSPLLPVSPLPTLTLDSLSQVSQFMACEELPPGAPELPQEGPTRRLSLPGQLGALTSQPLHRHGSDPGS
Description for Cytochrome P450 2C9: Inhibition of CYP2C9 (unknown origin)
Description for MDA-MB-468: Antiproliferative activity against human MDA-MB-468 cells incubated for 96 hrs by luminescence method
Description for hERG (KCNH2): Inhibition of human ERG at 10 uM relative to control
Description for physchem: Lipophilicity, logP of compound

Consider `NC(=O)c1cccc2c(N[C@H](CN3CCC3)c3ccc(Cl)c(C(F)(F)F)c3)ncnc12` [RUPITASERTIB], for which the half-life (usually the time in which the quantity being followed falls by half) in the series “in vivo [1]” is 4.1 h; in the series “in vivo [4]” it was 3.9 h; in “in vivo [24]” it was 4.3 h; in “in vivo [25]”, 10.1 h. Moreover, the fraction unbound (as a rule, free concentration divided by total concentration) in “in vitro [2]” was 0.05; in “in vitro [12]”, 0.05; in the series “in vitro [21]”, 0.03. Also, the bioavailability (commonly dose-corrected exposure relative to a reference, in per cent) turned out to be 36% in “in vivo [3]”, 43% in the series “in vivo [10]”, 15% in the series “in vivo [13]” and 44% in “in vivo [22]”. For the same molecule, the volume of distribution (Vd) – broadly, a proportionality between amount in the body and measured concentration, not a real space – in the series “in vivo [5]” came to 9.88 L/kg; in “in vivo [9]”, 14.3 L/kg; in “in vivo [11]”, 17.6 L/kg; in the series “in vivo [20]”, 7.43 L/kg. Moreover, the efflux ratio (usually a quotient of directional permeabilities that is used to spot active efflux) in the series “in vitro [6]” turned out to be 1.5. The values for the CL in [7], in series [8] and in [18] were 37 mL/min, 31 mL/min and 30 mL/min, respectively. Also, in the series “physchem”, the logP (in general, a log measure of how a compound divides between an organic and an aqueous phase) came out at 2.4. Moreover, the concentration for half-maximal inhibition (IC50) (as a rule, the concentration that inhibits the measured activity by half) was determined as 0.0011 µM in [14], 0.011 µM in the series “cells”, 0.004 µM in [26] and 0.17 µM in [27]. Further, the clearance – broadly, the rate of elimination divided by the concentration – in the series “in vivo [15]” was 20 mL/min/kg; in “in vivo [17]” it was 15 mL/min/kg; in “in vivo [19]” it was 25 mL/min/kg; in “in vivo [23]”, 51.7 mL/min/kg. In addition, the Papp A→B – broadly, the apparent permeability from the apical to the basolateral side of a cell layer – in “in vitro [16]” stood at 12.1 ×10⁻⁶ cm/s.
As to `NC(=O)c1cccc2c(N[C@H](CN3CCC3)c3ccccc3)ncnc12`, the IC50 in [14] is 0.0062 µM; in “cells”, 0.0016 µM.
As for `NC(=O)c1cccc2c(NCc3ccc4c(c3)OCO4)ncnc12`, the IC50 in [26] is over 10 µM.
As for `NC(=O)c1cccc2c(N[C@H](CN3CCC3)c3ccc(F)c(C(F)(F)F)c3)ncnc12`, the IC50 in series [14] is 0.0029 µM; in “cells”, 0.043 µM; in series [26], 0.006 µM; in [27], 0.233 µM.
For `CNC[C@@H](Nc1nc(C)nc2c(C(N)=O)cccc12)c1cccc(F)c1`, the IC50 was determined as 0.002 µM in series [14], 0.072 µM in the series “cells”, 0.044 µM in series [26] and 0.006 µM in series [27].
In the case of `NC(=O)c1cccc2c(NCc3ccc4c(c3)OCO4)nccc12`, the half-maximal inhibitory concentration (IC50) in [14] and in series [26] was over 10 µM in each case.
For the molecule `NC(=O)c1cccc2c(N[C@H](CN3CCC3)c3ccc(F)cc3)ncnc12`, the half-inhibitory concentration (IC50) came out at 0.008 µM in [14] and 0.103 µM in “cells”.
For `NC(=O)c1cccc2c(N[C@H](CN3CCC3)c3cccc(F)c3)ncnc12`, the values for the 50% inhibitory concentration (IC50) (in series [14]; in the series “cells”) were 0.0024 µM and 0.076 µM, respectively.
For the molecule `NC(=O)c1cccc2c(NCc3ccc4c(c3)OCO4)ccnc12`, the concentration for half-maximal inhibition (IC50) in [26] was over 10 µM.
Take `CNC[C@@H](Nc1nc(C(F)(F)F)nc2c(C(N)=O)cccc12)c1cccc(F)c1`: the values for the half-maximal inhibitory concentration (IC50) in series [14], in series [26] and in [27] were 0.03 µM, 0.4 µM and over 1 µM, respectively.
For the molecule `NC(=O)c1cccc2c(N[C@H](CN3CCC3)c3ccc(Cl)c(F)c3)ncnc12`, the IC50 is 0.002 µM in series [14], 0.043 µM in the series “cells”, 0.01 µM in [26] and 0.075 µM in [27].
In the case of `NC(=O)c1cccc2c(N[C@H](CN3CCC3)c3cccc(Cl)c3)ncnc12`, the IC50 came to 0.0013 µM in series [14], 0.025 µM in “cells” and 0.014 µM in [26].
Take `NC(=O)c1cccc2c(N[C@H](CN3CCC3)c3ccc(F)c(F)c3)ncnc12`: the figures for the IC50 (in series [14]; in “cells”; in series [26]) were 0.001 µM, 0.074 µM and 0.004 µM, respectively.
`COC(=O)c1cccc2c(NCc3ccc4c(c3)OCO4)ncnc12` had an IC50 in series [14] of over 10 µM.
Regarding `CNCC(Nc1ncnc2c(C(N)=O)cccc12)c1cccc(F)c1` (racemic), the results for the IC50 (in the series “cells”; in series [26]; in series [27]) were 0.025 µM, 0.015 µM and 0.009 µM, respectively.
In turn, `CN(C)C(=O)c1cccc2c(NCc3ccc4c(c3)OCO4)ncnc12` yielded an IC50 in [14] of over 10 µM.
With `CNC(=O)c1cccc2c(NCc3ccc4c(c3)OCO4)ncnc12`, the half-maximal inhibitory concentration (IC50) in [14] is over 10 µM.
Regarding `CCc1nc(N[C@H](CNC)c2cccc(F)c2)c2cccc(C(N)=O)c2n1`, the half-maximal inhibitory concentration (IC50) in series [14] turned out to be 0.002 µM; in “cells” it was 0.183 µM; in [26], 0.212 µM; in series [27] it was 0.051 µM.
As for `NC(=O)c1cccc2c(N[C@H](CN3CCCC3)c3cccc(F)c3)ncnc12`, the IC50 is 0.065 µM in [14], over 1 µM in the series “cells”, 0.563 µM in series [26] and 0.045 µM in [27].
In turn, `c1ccc(CNc2ncnc3ccccc23)cc1` returned a half-inhibitory concentration (IC50) in series [14] of over 10 µM.
Take `NC(=O)c1cccc2c(N[C@H](CN3CCCC3)c3ccccc3)ncnc12`: in “cells”, the half-maximal inhibitory concentration (IC50) was determined as 0.00917 µM.
Turning to `CNC[C@@H](Nc1ncnc2c(C(N)=O)cccc12)c1cccc(F)c1`, the values for the unbound share (fraction unbound) in the series “in vitro [2]”, in the series “in vitro [12]” and in “in vitro [21]” were 0.23, 0.15 and 0.22, respectively. The IC50 at Cytochrome P450 2C9 was 3.6 µM; with MDA-MB-468, 0.197 µM; in “cells”, 0.045 µM; in [26], 0.004 µM; in series [27] it was 0.004 µM. Besides, the CL in [7] was 29 mL/min; in series [8], 21 mL/min; in series [18] it was 11 mL/min. Further, the inhibition (commonly how much of the control response was suppressed) at 10 µM on hERG (KCNH2) was determined as 26%. In “in vivo [10]”, this molecule came in with a bioavailability of 33%. The molecule further displayed a Therm_solubility in [28] of 64 mg/mL. The same molecule showed a Papp A→B in “in vitro [16]” of 16 ×10⁻⁶ cm/s. Also, in “in vivo [19]”, the clearance is 29 mL/min/kg. Besides, the half-life in the series “in vivo [24]” was 2.1 h.
Take `CNCCC(Nc1ncnc2c(C(N)=O)cccc12)c1ccccc1` (stereo unspecified): 0.16 µM corresponded to half-maximal inhibition in [14] (IC50).
In “cells”, `CNC[C@H](Nc1ncnc2c(C(N)=O)cccc12)c1cccc(F)c1` displayed a half-maximal inhibitory concentration (IC50) of 0.702 µM.
With `NC(=O)c1cccc2c(N[C@H](CN3CCC3)c3ccc(C(F)(F)F)cc3)ncnc12`, the IC50 in series [14] was found to be 0.001 µM; in “cells”, 0.028 µM.
For `CN(Cc1ccccc1)c1ncnc2c(C(N)=O)cccc12`, half-maximal inhibition in series [14] (IC50) required 0.973 µM.
`NC(=O)c1cccc2c(N[C@H](CN3CCC3)c3cccc(C(F)(F)F)c3)ncnc12`: the half-inhibitory concentration (IC50) in the series “cells” is 0.056 µM; in series [26], 0.006 µM.
With `O=C(O)c1cccc2c(NCc3ccc4c(c3)OCO4)ncnc12`, the IC50 in [14] was over 10 µM.

Values taken from ChEMBL document CHEMBL4828767, “Identification of Clinical Candidate M2698, a Dual p70S6K and Akt Inhibitor, for Treatment of PAM Pathway-Altered Cancers” (J Med Chem, 2021).
